The values below come from US7825107B2, “Method of treating men suffering from chronic nonbacterial prostatitis with SERM compounds or aromatase inhibitors” (Hormos Medical Ltd., priority 2006, dated 2010).

The test system of assay [1] is effect of estradiol on the prostate (FRA2 or PR expression). The assay is described as follows: Estrogen antagonist effect in the prostate of castrated Noble rats, with and without estradiol, measured by FRA2 or PR expression. The assay is classed as in vivo. As to conditions: three weeks, 3, 10 and 30 mg/kg, with and without estradiol 70 ug/day.
Assay [2] is described as follows: Estrogen antagonist treatment of prostatitis in rats treated with T and E2. The assay is classed as in vivo. Particulars: 3 weeks T 240 ug/day and E2 70 ug/day, 2 doses of 5 mg/kg on the third week. The source says:
As prostatitis can be reversed by administering an antiestrogen, the condition is seen to be estrogen dependent.

The structures appear in SMILES notation.

Regarding `OCCOCCOc1ccc(/C(=C(/CCCl)c2ccccc2)c2ccccc2)cc1` [fispemifene], the “effect of estradiol on the prostate, measured by FRA2 or PR expression” value in assay [1] was “dose dependently inhibited the effect of estradiol on the prostate”.
In the case of `C[C@]12CC[C@@H]3c4ccc(O)cc4C[C@@H](CCCCCCCCC[S+]([O-])CCCC(F)(F)C(F)(F)F)[C@H]3[C@@H]1CC[C@@H]2O` (some centres unmarked) [fulvestrant], in assay [2], the “effect on prostatitis compared to the control group treated with T and E2 only” value is listed as “significantly reduced the prostatitis”.
